Data taken from patent US5789432A, “Aromatase-inhibiting composition containing azole derivative” (Kureha Kagaku Kogyo Kabushiki Kaisha, priority 1993, dated 1998).

Target: T1, Aromatase (Homo sapiens, UniProt P11511)
T1 construct: Microsomes of human placenta; from tissue; host or cells: human placenta, microsomes
T1 sequence (P11511 1-503): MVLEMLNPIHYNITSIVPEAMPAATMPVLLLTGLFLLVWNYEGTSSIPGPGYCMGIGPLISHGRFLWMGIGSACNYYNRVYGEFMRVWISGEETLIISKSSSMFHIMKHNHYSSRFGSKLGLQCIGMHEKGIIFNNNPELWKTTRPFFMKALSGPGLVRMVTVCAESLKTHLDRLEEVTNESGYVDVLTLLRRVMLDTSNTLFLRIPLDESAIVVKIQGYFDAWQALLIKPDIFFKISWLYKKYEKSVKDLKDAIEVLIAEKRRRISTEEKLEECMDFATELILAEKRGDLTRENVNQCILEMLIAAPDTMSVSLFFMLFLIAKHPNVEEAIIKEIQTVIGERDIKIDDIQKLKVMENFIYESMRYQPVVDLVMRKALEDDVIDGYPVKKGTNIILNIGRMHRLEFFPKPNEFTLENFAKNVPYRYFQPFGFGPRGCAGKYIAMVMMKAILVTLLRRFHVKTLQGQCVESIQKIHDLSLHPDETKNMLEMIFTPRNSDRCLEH
Assay: Aromatase-inhibiting activity (radiometric, H^14COOH release; method of Covey et al.)
Format: biochemical
Settings: not given
Procedure: The aromatase-inhibiting activity was measured basically according to the method described in D. F. Covey et al: BBRC […], 81-86, 1988. The aromatase-inhibiting activity of the azole derivatives used in the present invention was evaluated in terms of 50% aromatase activity-inhibiting concentration (IC50) of the derivatives.
The aromatase-inhibiting activity of each compound was measured according to the method of Covey et al: BBRC, 157 (1), 81-86, 1988. Radioactivity of a by-product H^14 COOH released from a ^14 C-labeled substrate by the action of aromatase was measured to radiometrically determine aromatase-inhibiting activity of the compounds. The aromatase-inhibiting activity of the test compound is shown by 50% aromatase activity-inhibiting concentration (IC50) of the compound.
An aromatase reaction system of the composition shown below in 67 mM phosphate buffer solution (0.5 ml) was incubated at 37° C. for 30 minutes with shaking. Chloroform (5 ml) was added to the reaction solution to stop the reaction. The reaction solution was vigorously stirred and then centrifuged to recover the by-product (H^14 COOH) of the aromatase reaction in the aqueous layer. The aqueous layer (0.1 ml) was collected and mixed with a liquid scintillation cocktail (4 ml) to measure its radioactivity.
(1) Aromatase: Microsomes of human placenta (0.1 mg/ml, protein concentration).
(2) Substrate: [19-^14 C] 4-Androstene-3,17-dione (1×10^-6 M; 2 kBq/ml).
(3) Coenzymes: Nicotinamide adenine dinucleotide phosphate, reduced form (2×10^-3 M), glucose-6-phosphate (4×10^-3 M) and glucose-6-phosphate dehydrogenase (4 U/ml).
Radioactivity of the reaction system exclusive of (1) was supposed to be background radioactivity as 100% control of aromatase inhibition. Radioactivity of the reaction system exclusive of (4) was supposed to be that of negative control as 0% of aromatase inhibition. […] 4-Hyroxyandrostenedione was used as a reference compound.
The aromatase inhibiting activities (IC50) of the optical isomers (I-3 (-) and I-3 (+)) were determined in the same way as in Example 6.

In order of rising IC50:
1. O[C@@]1(Cc2ccc(Cl)cc2Cl)CCC[C@H]1Cn1cncn1 (relative stereo) [Compound I-7, 1-(2,4-Dichlorobenzyl)-c-2-(1H-1,2,4-triazol-1-ylmethyl)cyclopentan-r-1-ol]  10 nM
2. O[C@@]1(c2ccc(Cl)cc2)CCC[C@H]1Cn1cncn1 (relative stereo) [Compound I-12, 1-(4-Chlorophenyl)-c-2-(1H-1,2,4-triazol-1-ylmethyl)cyclopentan-r-1-ol]  10 nM
3. CC(C)[C@@](O)(CCn1ccnc1)Cc1ccc(Cl)cc1 [Compound I-2, (3S)-3-(4-chlorobenzyl)-1-(1H-imidazol-1-yl)-4-methylpentan-3-ol]  10 nM
4. O[C@@]1(Cc2ccc(F)cc2F)CCC[C@H]1Cn1cncn1 (relative stereo) [Compound I-8, 1-(2,4-Difluorobenzyl)-c-2-(1H-1,2,4-triazol-1-ylmethyl)cyclopentan-r-1-ol]  12 nM
5. CC1(C)CC[C@@H]2Cc3ccc(Cl)cc3O[C@]21Cn1cncn1 [Compound I-14, (3aR,9aR)-6-chloro-2,3,9,9a-tetrahydro-3,3-dimethyl-3a(1H)-(1H-1,2,4-triazol-1-ylmethyl)cyclopenta[b][1]benzopyran]  12 nM
6. O[C@@]1(Cc2ccc(-c3ccccc3)cc2)CCC[C@H]1Cn1cncn1 (relative stereo) [Compound I-9, 1-(p-Biphenylmethyl)-c-2-(1H-1,2,4-triazol-1-ylmethyl)cyclopentan-r-1-ol]  13 nM
7. Fc1cccc2c1C[C@H]1CCC[C@@]1(Cn1cncn1)O2 [Compound I-18, (3aR,9aR)-8-Fluoro-2,3,9,9a-tetrahydro-3a(1H)-(1H-1,2,4-triazol-1-ylmethyl)cyclopenta[b][1]benzopyran]  13 nM
8. O[C@@]1(Cc2ccc(Cl)cc2)CCC[C@@H]1Cn1ccnc1 (relative stereo) [Compound I-4, 1-(4-chlorobenzyl)-t-2-(1H-imidazol-1-ylmethyl)cyclopentan-r-1-ol]  20 nM
9. C[C@]12CCC(=O)C(O)=C1CC[C@@H]1[C@@H]2CC[C@]2(C)C(=O)CC[C@@H]12 [Reference, 4-Hyroxyandrostenedione, reference compound]  20 nM
10. Clc1ccc2c(c1)O[C@]1(Cn3cncn3)CCC[C@@H]1C2 [Compound I-17, (3aR,9aR)-6-Chloro-2,3,9,9a-tetrahydro-3a(1H)-(1H-1,2,4-triazol-1-ylmethyl)cyclopenta[b][1]benzopyran]  30 nM
11. O[C@@]1(Cc2ccc(Cl)cc2)CCC[C@H]1Cn1cncn1 (relative stereo) [Compound I-6, 1-(4-Chlorobenzyl)-c-2-(1H-1,2,4-triazol-1-ylmethyl)cyclopentan-r-1-ol]  40 nM
12. CC1(C)C[C@@H](Cc2ccc(Cl)cc2)[C@](O)(Cn2cncn2)C1 (relative stereo) [Compound I-20, c-2-(4-Chlorobenzyl)-4,4-dimethyl-1-(1H-1,2,4-triazol-1-ylmethyl)cyclopentan-r-1-ol]  40 nM
13. O[C@@]1(Cc2ccc(Cl)cc2)CCC[C@H]1Cn1ccnc1 (stereo in doubt) [Compound I-3, 1-(4-chlorobenzyl)-c-2-(1H-imidazol-1-ylmethyl)cyclopentan-r-1-ol]  40 nM
14. CC1(C)C[C@@H](Cc2ccc(Cl)cc2)[C@](O)(Cn2ccnc2)C1 (relative stereo) [Compound I-19, c-2-(4-Chlorobenzyl)-1-(1H-imidazol-1-ylmethyl)-4,4-dimethylcyclopentan-r-1-ol]  65 nM

Same assay, conditions: Table 1; microsomes of human placenta, [19-14C] 4-androstene-3,17-dione 1×10^-6 M, 37° C., 30 minutes; read-out: IC50 (50% aromatase activity-inhibiting concentration)

In order of rising IC50:
1. CC(C)[C@](O)(CCn1ccnc1)c1ccc(Cl)cc1 [Compound I-1, (3R)-3-(4-chlorophenyl)-1-(1H-imidazol-1-yl)-4-methylpentan-3-ol]  10 nM
2. O[C@@]1(c2ccc(Cl)cc2)CCC[C@H]1Cn1ccnc1 (relative stereo) [Compound I-10, 1--(4-Chlorophenyl)-c-2-(1H-imidazol-1-ylmethyl)cyclopentan-r-1-ol]  30 nM
3. Clc1ccc2c(c1)O[C@]1(Cn3ccnc3)CCC[C@@H]1C2 [Compound I-16, (3aR,9aR)-6-Chloro-2,3,9,9a-tetrahydro-3a(1H)-(1H-imidazol-1-ylmethyl)cyclopenta[b][1]benzopyran]  30 nM
4. O[C@@]1(c2ccccc2)CCC[C@H]1Cn1ccnc1 (relative stereo) [Compound I-11, 1-(Phenyl)-c-2-(1H-imidazol-1-ylmethyl)cyclopentan-r-1-ol]  35 nM
5. CC1(C)CC[C@@H]2Cc3ccc(Cl)cc3O[C@]21Cn1ccnc1 [Compound I-15, (3aR,9aR)-6-Chloro-2,3,9,9a-tetrahydro-3a(1H)-(1H-imidazol-1-ylmethyl)-3,3-dimethylcyclopenta[b][1]benzopyran]  45 nM
6. O[C@@]1(Cc2ccccc2)CCC[C@@H]1Cn1ccnc1 (relative stereo) [Compound I-5, 1-(Benzyl)-t-2-(1H-imidazol-1-ylmethyl)cyclopentan-r-1-ol]  50 nM

Same assay, conditions: read-out: IC50 (50% aromatase activity-inhibiting concentration); Table 1; microsomes of human placenta, [19-14C] 4-androstene-3,17-dione 1×10^-6 M, 37° C., 30 minutes

For `O[C@@]1(Cc2ccc(Cl)cc2)CCC[C@H]1Cn1ccnc1` (stereo in doubt) [Compound I-13, nitrate of 1-(4-chlorobenzyl)-c-2-(1H-imidazol-1-ylmethyl)-cyclopentan-r-1-ol], the IC50 was 55 nM.

Same assay, conditions: read-out: IC50 of optical isomers; Example 7; same way as in Example 6

In order of falling IC50:
1. O[C@]1(Cc2ccc(Cl)cc2)CCC[C@@H]1Cn1ccnc1 (stereo in doubt) [I-3 (+), 1-(4-chlorobenzyl)-c-2-(1H-imidazol-1-ylmethyl)cyclopentan-r-1-ol]  80 nM
2. O[C@]1(Cc2ccc(Cl)cc2)CCC[C@@H]1Cn1ccnc1 (stereo in doubt) [I-3 (-), 1-(4-chlorobenzyl)-c-2-(1H-imidazol-1-ylmethyl)cyclopentan-r-1-ol]  4 nM
